Measurements: US20250074892A1, “CARBONYL BRIDGED HETEROCYCLIC COMPOUND, AND COMPOSITION AND APPLICATION THEREOF” (BEIJING SCITECH-MQ PHARMACEUTICALS LIMITED, priority 2022, published 2025)
Like-named read-outs stand apart in the source and are kept apart here.

Key:
L929 cells = assay: Inhibition of cell necrosis (CCK8 method), L929 cells; type: cell-based, mouse; details: Mus musculus, L929, L929, Murine TNF-α/Z-VAD-FMK, 4-8 hours, CCK8
Procedure, shortened: (§1)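 HT29 (1.2×10^4/well) and L929 (2.0×10^4/well) cells were pretreated 30 min with compound, 9-point 4-fold series from 10 μM in duplicate. Necrosis was induced with human TNF-α 20 ng/mL, AT-406 […] and Z-VAD-FMK 20 μM for 16 h (HT29), or murine TNF-α 20 ng/mL and Z-VAD-FMK 25 μM for 4-8 h (L929). CCK8 viability; IC50 from dose-effect curve.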

HT29 cells = assay: Inhibition of cell necrosis (CCK8 method), HT29 cells; type: cell-based, human; details: Homo sapiens, HT-29, 16 h, HT29, Human TNF-α/AT-406/Z-VAD-FMK, 16 hours, CCK8
Procedure, shortened: as §1

[1] = Beagle PK (pharmacokinetics); type: in vivo, beagle dogs; details: whole blood, Beagle dog
Experimental: (§2) In this assay, the pharmacokinetic characteristics and ability to penetrate the blood-brain barrier of the compounds of the present application were assayed after administration of some of the compounds of the present application to SD rats, CD-1 mice or beagle dogs by single oral administration and intravenous injection.
(§3) 1. Intravenous (IV) injection group: an appropriate amount of the assay compound was weighed, and completely dissolved in an appropriate volume of vehicle. The mixture was stirred, vortexed and/or sonicated. Once a solution was obtained, the vehicle was gradually added to a final volume to reach the target concentration. The solution was vortexed, and sonicated to obtain a homogeneous solution. The solution was filtered through a […] PVDF membrane.
(§4) 2. Oral (PO) group: an appropriate amount of the assay compound was weighed, and completely dissolved in an appropriate volume of vehicle. The mixture was stirred, vortexed and/or sonicated. Once a solution was obtained, the vehicle was gradually added to a final volume to reach the target concentration. The solution was vortexed, and sonicated to obtain a homogeneous solution.
(§5) Meanwhile, the IV group was not fasted and the PO group was fasted overnight (>12 hrs) and given food 2 hrs after drug administration. All animals had free access to water. The dosing regimen and pharmacokinetic sampling regimen are given in Table 10 and Table 11 below, respectively.
(§6) The brain was weighed and homogenized by adding 4 times of ultrapure water. Six times volume of acetonitrile was added respectively to the whole blood samples and brain homogenate (20 times volume of acetonitrile was added to the whole blood sample of mouse PK). The mixture was vortexed for 1 min and then centrifuged at 4° C., 4500 rpm for 15 min. According to the instrument response, the supernatant was diluted with diluent and the sample was analyzed by LC/MS.
(§7) Pharmacokinetic parameters were calculated using WinNonlin software. The following pharmacokinetic parameters were calculated if appropriate plasma/whole blood drug concentration-time data were available: CL (clearance); Vd (apparent volume of distribution); T1/2 (elimination half-life time); Cmax (peak concentration); Tmax (time to peak); AUC (area under plasma drug concentration-time curve); MRT (mean retention time); F % (bioavailability).

[2] = Rat PK&BBB (pharmacokinetics and brain penetration); type: in vivo, SD rats
Experimental: as §2, §3, §4, §5
Rats were administered according to the above protocol, and blood and brain tissue samples were collected and processed at predetermined time points (collection and processing were performed according to conventional methods in the art).
as §6, §7

[3] = IV 1 mg/kg, read-out: Blood drug concentration
[4] = PO 3 mg/kg, read-out: Blood drug concentration
[5] = Sprague-Dawley, rat, whole blood, iv, 3 mg/kg, IV 3 mg/kg, read-out: Blood drug concentration
[6] = Sprague-Dawley, rat, whole blood, po, 30 mg/kg, PO 30 mg/kg, read-out: Blood drug concentration

## CC(C)(O)COc1ccc(F)c(-c2ccnc(N3CCC(C(=O)N4N=CC[C@H]4c4cc(F)cc(F)c4)CC3)c2)c1 (racemic) [Example 42]
L929 cells
  IC50: ≤ 10 nM
HT29 cells
  IC50: ≤ 10 nM
[1]; IV 1 mg/kg
  AUC(0-inf): 3380 ± 342 ng·h/mL
  AUC(0-t): 2920 ± 268 ng·h/mL
  Vd: 3.7 ± 1.05 L/kg
  half-life: 8.72 ± 3 h
[1]; [3]
  concentration at 0 hr: 0 ng/mL
  concentration at 0.25 hr: 451 ± 77 ng/mL
  concentration at 0.5 h: 390 ± 13 ng/mL
  concentration at 1 h: 253 ± 49 ng/mL
  concentration at 2 h: 236 ± 69 ng/mL
  concentration at 4 h: 176 ± 29 ng/mL
  concentration at 7 h: 133 ± 14 ng/mL
[1]; IV 1 mg/kg, 0.083 hr, read-out: Blood drug concentration
  concentration at 0.083 hr: 535 ± 62 ng/mL
[1]; IV 1 mg/kg, 24 hr, read-out: Blood drug concentration
  concentration at 24 hr: 32.9 ± 13.5 ng/mL
[1]; IV 1 mg/kg, read-out: Cl—obs
  clearance: 4.97 ± 0.51 mL/min/kg
[1]; PO 3 mg/kg
  AUC(0-inf): 18000 ± 939 ng·h/mL
  AUC(0-t): 11200 ± 2940 ng·h/mL
  Cmax: 1510 ± 396 ng/mL
  Tmax: 1.17 ± 0.76 h
  half-life: 18.1 ± 5 h
[1]; PO 3 mg/kg vs IV 1 mg/kg
  bioavailability: 127 ± 28%
[1]; [4]
  concentration at 0 hr: 0 ng/mL
  concentration at 0.25 hr: 645 ± 362 ng/mL
  concentration at 0.5 h: 1320 ± 406 ng/mL
  concentration at 1 h: 1170 ± 696 ng/mL
  concentration at 2 h: 1320 ± 320 ng/mL
  concentration at 4 h: 560 ± 231 ng/mL
  concentration at 7 h: 406 ± 145 ng/mL
[1]; PO 3 mg/kg, 24 hr, read-out: Blood drug concentration
  concentration at 24 h: 260 ± 19 ng/mL
[2]; SD, rat, whole blood, iv, 3 mg/kg, IV 3 mg/kg, 24 hr, read-out: Blood drug concentration
  concentration at 24 hr: 19.9 ± 2.4 ng/mL
[2]; SD, whole blood, IV 3 mg/kg
  AUC(0-inf): 4140 ± 234 ng·h/mL
  AUC(0-t): 3990 ± 225 ng·h/mL
  Vd: 5.5 ± 0.38 L/kg
  half-life: 5.25 ± 0.14 h
[2]; SD, whole blood, IV 3 mg/kg, read-out: Cl—obs
  clearance: 12.1 ± 0.7 mL/min/kg
[2]; SD, whole blood, PO 30 mg/kg
  AUC(0-inf): 26500 ± 3060 ng·h/mL
  AUC(0-t): 24200 ± 2750 ng·h/mL
  Cmax: 1580 ± 205 ng/mL
  Tmax: 6 ± 1.73 h
  half-life: 6.33 ± 1.56 h
[2]; SD, whole blood, PO 30 mg/kg vs IV 3 mg/kg
  bioavailability: 64 ± 7.4%
[2]; Sprague-Dawley, brain / whole blood, PO 30 mg/kg, 2 h after administration, read-out: Brain/blood ratio
  Kp at 2 h: 0.915
[2]; Sprague-Dawley, rat, brain, po, 30 mg/kg, PO 30 mg/kg, 2 h after administration, read-out: Brain concentration
  concentration at 2 h: 1970 ng/g
[2]; [5]
  concentration at 0 h: 0 ng/mL
  concentration at 0.25 h: 565 ± 166 ng/mL
  concentration at 0.5 h: 445 ± 70 ng/mL
  concentration at 1 h: 368 ± 53 ng/mL
  concentration at 4 h: 269 ± 25 ng/mL
  concentration at 7 h: 199 ± 23 ng/mL
[2]; Sprague-Dawley, rat, whole blood, iv, 3 mg/kg, IV 3 mg/kg, 0.083 hr, read-out: Blood drug concentration
  concentration at 0.083 h: 798 ± 302 ng/mL
[2]; Sprague-Dawley, rat, whole blood, iv, 3 mg/kg, IV 3 mg/kg, 2 hr, read-out: Blood drug concentration
  concentration at 2 h: 303 ± 39 ng/mL
[2]; [6]
  concentration at 0 h: 0 ng/mL
  concentration at 0.25 h: 266 ± 89 ng/mL
  concentration at 0.5 h: 654 ± 74 ng/mL
  concentration at 1 h: 1250 ± 67 ng/mL
  concentration at 4 h: 1380 ± 387 ng/mL
  concentration at 7 h: 1550 ± 153 ng/mL
[2]; Sprague-Dawley, rat, whole blood, po, 30 mg/kg, PO 30 mg/kg, 2 hr, read-out: Blood drug concentration
  concentration at 2 h: 1300 ± 178 ng/mL
[2]; Sprague-Dawley, rat, whole blood, po, 30 mg/kg, PO 30 mg/kg, 24 hr, read-out: Blood drug concentration
  concentration at 24 h: 237 ± 95 ng/mL
[2]; Sprague-Dawley, rat, whole blood, po, 30 mg/kg, PO 30 mg/kg, whole blood, 2 h after administration, read-out: Blood drug concentration
  concentration at 2 h: 2150 ng/mL
